Assay results taken from patent publication US9796711B2, “Substituted pyrazolo[3,4-b]pyridin-6-carboxylic acids and method of use” (AbbVie S.àr.l., priority 2015, dated 2017).

Columns and labels:
ΔF508-CFTR [1] = target: T1, ΔF508-CFTR (Homo sapiens, UniProt P13569, DEL508-508); assay: CFTR cell surface levels using HRP-tagged ΔF508-CFTR expressing CFBE cells, in the presence of a co-corrector; type: cell-based; settings: HRP-tagged ΔF508-CFTR expressing CFBE cells, in the presence of 3 μM co-corrector; for EC50: read-out: EC50
T1 construct: host or cells: CFBE41o-, doxycycline-inducible
T1 sequence (P13569 with tags, fused parts or gaps DEL508-508): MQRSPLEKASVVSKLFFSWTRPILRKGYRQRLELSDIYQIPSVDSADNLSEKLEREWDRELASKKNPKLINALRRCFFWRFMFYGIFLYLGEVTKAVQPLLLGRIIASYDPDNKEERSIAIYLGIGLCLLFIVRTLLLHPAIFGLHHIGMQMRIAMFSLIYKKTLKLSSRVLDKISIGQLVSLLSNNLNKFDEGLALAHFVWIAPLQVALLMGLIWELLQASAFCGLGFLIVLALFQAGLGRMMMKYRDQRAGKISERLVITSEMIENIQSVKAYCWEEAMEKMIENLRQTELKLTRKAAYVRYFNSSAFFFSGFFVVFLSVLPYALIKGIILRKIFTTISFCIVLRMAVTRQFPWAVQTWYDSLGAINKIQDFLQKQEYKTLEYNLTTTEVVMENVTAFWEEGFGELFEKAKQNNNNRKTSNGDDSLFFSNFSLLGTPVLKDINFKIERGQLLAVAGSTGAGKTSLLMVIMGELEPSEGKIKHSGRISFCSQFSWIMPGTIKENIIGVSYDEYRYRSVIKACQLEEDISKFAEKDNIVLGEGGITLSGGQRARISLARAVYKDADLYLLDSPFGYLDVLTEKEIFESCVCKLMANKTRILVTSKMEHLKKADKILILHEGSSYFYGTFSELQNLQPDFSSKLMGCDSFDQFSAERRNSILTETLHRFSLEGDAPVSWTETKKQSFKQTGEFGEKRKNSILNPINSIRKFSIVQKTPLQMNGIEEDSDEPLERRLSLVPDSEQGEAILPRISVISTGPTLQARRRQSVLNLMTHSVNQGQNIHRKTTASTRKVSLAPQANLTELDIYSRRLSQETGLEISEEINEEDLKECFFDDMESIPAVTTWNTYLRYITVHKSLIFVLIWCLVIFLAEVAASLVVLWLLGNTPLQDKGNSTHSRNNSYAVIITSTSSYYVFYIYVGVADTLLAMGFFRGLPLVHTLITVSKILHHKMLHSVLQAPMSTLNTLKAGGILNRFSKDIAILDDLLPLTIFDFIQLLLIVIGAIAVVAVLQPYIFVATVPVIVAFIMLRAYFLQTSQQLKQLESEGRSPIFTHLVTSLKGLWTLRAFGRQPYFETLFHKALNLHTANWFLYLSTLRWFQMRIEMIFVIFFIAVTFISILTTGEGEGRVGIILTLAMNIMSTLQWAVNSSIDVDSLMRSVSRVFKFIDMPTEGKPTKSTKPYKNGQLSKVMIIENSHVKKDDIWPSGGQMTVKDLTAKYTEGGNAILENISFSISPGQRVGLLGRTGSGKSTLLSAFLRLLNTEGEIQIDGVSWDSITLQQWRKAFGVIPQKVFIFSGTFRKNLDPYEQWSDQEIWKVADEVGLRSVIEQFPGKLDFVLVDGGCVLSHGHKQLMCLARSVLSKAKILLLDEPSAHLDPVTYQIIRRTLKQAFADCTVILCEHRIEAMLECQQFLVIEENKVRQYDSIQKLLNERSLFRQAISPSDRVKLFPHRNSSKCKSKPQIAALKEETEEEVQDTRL
Summary of the method: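 Cells were seeded with 0.5 μg/mL doxycycline and held 68 h at 37 °C. Test compounds plus 3 μM co-corrector (final 0.1% DMSO) were then added for 20 h at 33 °C. Washed cells received HRP substrate, and luminescence was normalized between DMSO and 3 μM co-corrector controls.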

ΔF508-CFTR [2] = target: T1, ΔF508-CFTR; assay: CFTR cell surface levels using HRP-tagged ΔF508-CFTR expressing CFBE cells, intrinsic corrector capacity; type: cell-based; settings: HRP-tagged ΔF508-CFTR expressing CFBE cells, intrinsic corrector capacity (no co-corrector), 33° C., 20 hours; for EC50: read-out: EC50
Summary of the method: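 Here the cells express ΔF508-CFTR with horseradish peroxidase inserted in extracellular loop 4, so only rescued channel at the surface gives luminescent signal. Compounds act on their own, 20 h at the reduced temperature of 33 °C; values are percent activity relative to DMSO and a 3 μM corrector.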

SMILES | % Activation (ΔF508-CFTR [1]) [%] | EC50 (ΔF508-CFTR [1]) [nM] | % Activation (ΔF508-CFTR [2]) [%] | EC50 (ΔF508-CFTR [2]) [nM]
CC(=O)N1CCC(F)(COc2cc(C(=O)O)nc3c2c(C2CCC2)nn3-c2ccccc2)CC1 [compound 479, 4-[(1-acetyl-4-fluoropiperidin-4-yl)methoxy]-3-cyclobutyl-1-phenyl-1H-pyrazolo[3,4-b]pyridine-6-carboxylic acid] | 317.77 | 1850 | 114.41 | 1850
O=C(O)c1cc(OC[C@@H]2CCCO2)c2c(C3CCC3)nn(-c3ccccc3)c2n1 [compound 480, 3-cyclobutyl-4-{[(2S)-oxolan-2-yl]methoxy}-1-phenyl-1H-pyrazolo[3,4-b]pyridine-6-carboxylic acid] | 270.4 | 364 | 115.15 | 862
COC1CN(C(=O)COc2cc(C(=O)O)nc3c2c(C2CCC2)nn3-c2ccccc2)C1 [compound 481, 3-cyclobutyl-4-[2-(3-methoxyazetidin-1-yl)-2-oxoethoxy]-1-phenyl-1H-pyrazolo[3,4-b]pyridine-6-carboxylic acid] | 210.3 | 3050 | 48.6 | 3340
CN1CCC([C@@H](F)COc2cc(C(=O)O)nc3c2c(C2CCC2)nn3-c2ccccc2)CC1 [compound 482, 3-cyclobutyl-4-[(2R)-2-fluoro-2-(1-methylpiperidin-4-yl)ethoxy]-1-phenyl-1H-pyrazolo[3,4-b]pyridine-6-carboxylic acid] | 284.7 | 709 | 144.75 | 1640
O=C(O)c1cc(OCCOC2COC2)c2c(C3CCC3)nn(-c3ccccc3)c2n1 [compound 483, 3-cyclobutyl-4-{2-[(oxetan-3-yl)oxy]ethoxy}-1-phenyl-1H-pyrazolo[3,4-b]pyridine-6-carboxylic acid] | 267 | 367 | 142.4 | 897
COCCC1(CCOc2cc(C(=O)O)nc3c2c(C2CCC2)nn3-c2ccccc2)CC1 [compound 484, 3-cyclobutyl-4-{2-[1-(2-methoxyethyl)cyclopropyl]ethoxyl}-1-phenyl-1H-pyrazolo[3,4-b]pyridine-6-carboxylic acid] | 226.6 | 369 | 113.5 | 1110
COCCC1(COc2cc(C(=O)O)nc3c2c(C2CCC2)nn3-c2ccccc2)CC1 [compound 485, 3-cyclobutyl-4-{[1-(2-methoxyethyl)cyclopropyl]methoxyl}-1-phenyl-1H-pyrazolo[3,4-b]pyridine-6-carboxylic acid] | 242.05 | 335 | 107.5 | 1070
O=C(O)c1cc(OCC2CCCC2(F)F)c2c(C3CCC3)nn(-c3ccccc3)c2n1 (stereo not shown) [compound 486, 3-cyclobutyl-4-[(2,2-difluorocyclopentyl)methoxy]-1-phenyl-1H-pyrazolo[3,4-b]pyridine-6-carboxylic acid] | 299 | 335 | 127 | 603
O=C(O)c1cc(OCCCN2CCOCC2)c2c(C3CCC3)nn(-c3ccccc3)c2n1 [compound 487, 3-cyclobutyl-4-[3-(morpholin-4-yl)propoxy]-1-phenyl-1H-pyrazolo[3,4-b]pyridine-6-carboxylic acid] | 316.5 | 491 | 142.7 | 835
O=C(O)c1cc(OCCC2OCCCO2)c2c(C3CCC3)nn(-c3ccccc3)c2n1 [compound 488, 3-cyclobutyl-4-[2-(1,3-dioxan-2-yl)ethoxy]-1-phenyl-1H-pyrazolo[3,4-b]pyridine-6-carboxylic acid] | 261.9 | 462 | 95.49 | 755
O=C(O)c1cc(OCCCF)c2c(C3CCC3)nn(-c3ccccc3)c2n1 [compound 489, 3-cyclobutyl-4-(3-fluoropropoxy)-1-phenyl-1H-pyrazolo[3,4-b]pyridine-6-carboxylic acid] | 274.95 | 770 | 106.4 | 1860
CC1(COc2cc(C(=O)O)nc3c2c(C2CCC2)nn3-c2ccccc2)COC1 [compound 490, 3-cyclobutyl-4-[(3-methyloxetan-3-yl)methoxy]-1-phenyl-1H-pyrazolo[3,4-b]pyridine-6-carboxylic acid] | 311.1 | 296 | 144.95 | 400
COCC(COC)Oc1cc(C(=O)O)nc2c1c(C1CCC1)nn2-c1ccccc1 [compound 491, 3-cyclobutyl-4-[(1,3-dimethoxypropan-2-yl)oxy]-1-phenyl-1H-pyrazolo[3,4-b]pyridine-6-carboxylic acid] | 256.5 | 966 | 82.97 | 2280
CN(C)[C@H]1C[C@@H](Oc2cc(C(=O)O)nc3c2c(C2CCC2)nn3-c2ccccc2)C1 [compound 492, 3-cyclobutyl-4-{[cis-3-(dimethylamino)cyclobutyl]oxy}-1-phenyl-1H-pyrazolo[3,4-b]pyridine-6-carboxylic acid] | 239.55 | 2510 | 84.2 | 2370
CC1OCC(Oc2cc(C(=O)O)nc3c2c(C2CCC2)nn3-c2ccccc2)CO1 (stereo not shown) [compound 493, 3-cyclobutyl-4-[(2-methyl-1,3-dioxan-5-yl)oxy]-1-phenyl-1H-pyrazolo[3,4-b]pyridine-6-carboxylic acid] | 286.5 | 396 | 129.05 | 645
CN1CCC[C@H](Oc2cc(C(=O)O)nc3c2c(C2CCC2)nn3-c2ccccc2)C1 [compound 494, 3-cyclobutyl-4-{[(3S)-1-methylpiperidin-3-yl]oxy}-1-phenyl-1H-pyrazolo[3,4-b]pyridine-6-carboxylic acid] | 196.7 | 1160 | 65.56 | 3280
O=C(O)c1cc(OC2CC3(COC3)C2)c2c(C3CCC3)nn(-c3ccccc3)c2n1 [compound 495, 3-cyclobutyl-4-[(2-oxaspiro[3.3]heptan-6-yl)oxy]-1-phenyl-1H-pyrazolo[3,4-b]pyridine-6-carboxylic acid] | 235.15 | 307 | 95.96 | 1110
CN1CCC[C@@H](Oc2cc(C(=O)O)nc3c2c(C2CCC2)nn3-c2ccccc2)C1 [compound 496, 3-cyclobutyl-4-{[(3R)-1-methylpiperidin-3-yl]oxy}-1-phenyl-1H-pyrazolo[3,4-b]pyridine-6-carboxylic acid] | 145.5 | 2130 | 32.84 | 3340
CC(=O)N1CC(Oc2nn(-c3ccccc3)c3nc(C(=O)O)cc(-c4ccc(N5CCOCC5)cc4)c23)C1 [compound 497, 3-[(1-acetylazetidin-3-yl)oxy]-4-[4-(morpholin-4-yl)phenyl]-1-phenyl-1H-pyrazolo[3,4-b]pyridine-6-carboxylic acid] | 157.55 | 3340 | 24.76 | > 10000
